In patent US10258635B2, “Formulations and compositions of vitamin D analogs for treating and preventing cancer and other diseases” (priority 2013, dated 2019):
“Also recorded” adds a separate entry of the source.

Experiments:
DU 145 cells = assay: Efficacy study of 25-OH-D3-3-BE in DU 145 tumor-bearing athymic nude mice (oral gavage); assay type: in vivo; details: for anti-tumor effect: mouse prostate tumor xenograft model; for average tumor volume at the end of treatment: oral gavage every third day, day 11 to 31
Description: Male, athymic nude mice (average weight 20 gm) were fed normal rat chow and water ad libitum. They were inoculated with DU 145 cells, grown in culture, in the flank under light anesthesia. […] Administration of the compound was done by oral gavage on every third day (when weights were determined). Treatment started on day 11 and stopped on day 31; and they were left untreated for several additional days (as shown in FIG. 26) when they were sacrificed and blood was collected.

[1] = test system: PC-3 (androgen-insensitive prostate cancer) cells; assay: 3H-thymidine incorporation assay, PC-3; assay type: cell-based; details: 10^−6 M; for growth reduction of PC-3 cells: relative to EtOH
Description: (§1) Antiproliferation studies of keratinocytes (normal skin), MCF-7 (breast cancer), PZ-HPV-7 (immortalized normal prostate), LNcap (androgen-sensitive prostate cancer) and PC-3 (androgen-insensitive prostate cancer) cells, treated with 10^−6M of 25-OH-D3-3-BE (AMPI-105) or 1,25(OH)2D3 (bioactive Vitamin D3 hormone) were performed with a ^3H-thymidine incorporation assay
(§2) PZ-HPV-7 cells were grown in MCDB media containing pituitary extract, epidermal growth factor (EGF) and 1% penicillin/streptomycin. Keratinocytes were also grown in the same media with additional PG1 and insulin. PC-3, LNCaP, DU-145 cells were grown in RPMI media containing 10% fetal bovine serum (FBS) and antibiotics. MCF-7 cells were grown in DMEM media containing 10% FBS and antibiotics. LAPC-4 cells were maintained in IMEM media containing antibiotics, 1° % L-glutamine and 10 nM of R1881, a synthetic […]. MC3T3 mouse bone cells were grown in α-MEM media containing 10% FBS and antibiotics. In general, cells were grown in 35 mm dishes to 70-80% confluence and then plated into 24-well plates in respective media. After the cells grew to approximately 70% confluence, they were serum-starved for 20 hours (MCF-7, PC-3, LNCaP and DU-145 cells) followed by incubation with steroid samples. Keratinocytes and PZ-HPV-7 cells, after reaching 70% confluence, were kept in MCDB media without additives for 20 hours before treatment with steroids. In general, reagents were dissolved in ethanol (EtOH), and dilution with the media was adjusted in such a way that the concentration of EtOH was 0.1% v/v.
(§3) Assays were carried out with six (6) replicates and student's t-test was employed for statistical analysis. Results are expressed relative to EtOH (100%) in FIG. 24.

MCF-7 cells = assay: Cell counting assay, MCF-7; assay type: cell-based; details: 48 hr; 10^−6 M 25-OH-D3-3-BE, 10^−7 M 1,25(OH)2D3; not serum-starved
Description: as §2
(§4) It should be noted that in this assay cells were not serum-starved prior to addition of the reagents, and 10^−7 M of 1,25(OH)2D3 had little effect on all the cells.

LNCaP cells = assay: Cell counting assay, LNCaP; assay type: cell-based; details: 24 hours; 10^−6 M 25-OH-D3-3-BE, 10^−7 M 1,25(OH)2D3; not serum-starved
Description: as §2, §4

[2] = test system: PZ-HPV-7 (immortalized normal prostate) cells; assay: 3H-thymidine incorporation assay, PZ-HPV-7; assay type: cell-based
Description: as §1
as §2, with “Keratinocytes and PZ-HPV-7 cells, after reaching 70% confluence, were kept in MCDB media without additives for 20 hours before treatment with steroids. In general, reagents were dissolved in ethanol (EtOH), and dilution with the media was adjusted in such a way that the concentration of EtOH was 0.1% v/v.” left out

MC3T3 mouse bone cells = assay: Cell counting assay, MC3T3; assay type: cell-based; details: 48 hr; 10^−6 M 25-OH-D3-3-BE, 10^−7 M 1,25(OH)2D3; not serum-starved
Description: as §2, §4

LAPC-4 cells = assay: Cell counting assay, LAPC-4; assay type: cell-based; details: 24 hours; 10^−6 M 25-OH-D3-3-BE, 10^−7 M 1,25(OH)2D3; not serum-starved
Description: as §2, §4

[3] = test system: keratinocytes (normal skin); assay: 3H-thymidine incorporation assay, keratinocytes; assay type: cell-based; details: 10^−6M
Description: as §1
as §2, with “Keratinocytes and PZ-HPV-7 cells, after reaching 70% confluence, were kept in MCDB media without additives for 20 hours before treatment with steroids. In general, reagents were dissolved in ethanol (EtOH), and dilution with the media was adjusted in such a way that the concentration of EtOH was 0.1% v/v.” left out

[4] = test system: LNCaP (androgen-sensitive prostate cancer) cells; assay: 3H-thymidine incorporation assay, LNCaP (Example 13); assay type: cell-based
Description: as §1, §2, §3

[5] = test system: MCF-7 (breast cancer) cells; assay: 3H-thymidine incorporation assay, MCF-7; assay type: cell-based; details: 10^−6M
Description: as §1
as §2, with “Keratinocytes and PZ-HPV-7 cells, after reaching 70% confluence, were kept in MCDB media without additives for 20 hours before treatment with steroids. In general, reagents were dissolved in ethanol (EtOH), and dilution with the media was adjusted in such a way that the concentration of EtOH was 0.1% v/v.” left out

DU-145 cells = assay: 3H-thymidine incorporation assay in DU-145 cells; assay type: cell-based, human; details: for anti-proliferative effect in DU-145 cells: 10^−6M, separate experiment
24-OHase = assay: Message for 24-OHase in LNCaP cells; assay type: cell-based
normal kidney cells = assay: 3H-thymidine incorporation assay in normal kidney cells; assay type: cell-based; details: 10^−6M
[6] = test system: PC-3 Prostate Cancer Cells; assay: Cell-counting antiproliferative evaluation, PC-3; assay type: cell-based; design: dose or concentration left out as unconfirmed; details: dosed days 1, 3, 5, counted 7th day
Description: (§5) Prostate cancer cells (DU-145, PC-3 and LNCaP) were grown in DMEM medium with 10% FBS, antibiotics, etc. […] Results are designated as percentage of ethanol control.

[7] = test system: DU 145 human androgen-insensitive prostate cancer cells; assay: AMPI-107 in DU 145 xenograft, p.o. administration (Example 17); assay type: in vivo
Excerpt: (§6) Male, athymic mice (average weight 20 gm) were fed normal rat chow and water ad libitum. They were inoculated with DU 145 human androgen-insensitive prostate cancer cells (10^6), grown in culture in the flank under light anesthesia. […] Treatment started on day 11 and stopped on day 30; and they were left untreated for two (2) additional days when they were sacrificed.

[8] = test system: LNCaP prostate cancer cells; assay: Cell-counting antiproliferative evaluation, LNCaP; assay type: cell-based; details: Calcitrol 10^−6M, AMPI-107 10^−5M; dosed days 1, 3, 5, counted 7th day
Description: as §5

[9] = test system: DU-145 Prostate Cancer Cells; assay: Cell-counting antiproliferative evaluation, DU-145; assay type: cell-based, human; details: Calcitrol 10^−6M, AMPI-107 10^−5M; dosed days 1, 3, 5, counted 7th day
Description: as §5

[10] = test system: Normal prostate WPMY cells; assay: Viability testing by MTT reduction in normal prostate cells; assay type: cell-based; details: 24 hours; AMPI-107 1 and 10 μM, Calcitrol 1 μM
Description: MTT is reduced in metabolically active cells, in part by the action of dehydrogenase enzymes, to generate reducing equivalents such as NADH and NADPH. The resulting intracellular purple formazan can be solubilized and quantified by spectrophotometry. After 5 minutes at room temperature, absorbances in plates were measured using a plate analyzer set for in dual wavelength comparisons at wavelength of 540 nm with a reference wavelength of 620 nm.

[11] = test system: DU-145 human prostate cancer cells; assay: DU-145 xenograft efficacy, p.o. administration (Example 11); assay type: in vivo, nude mice; details: p.o.; calcitriol 0.5 μg/kg and 1.0 μg/kg; AMPI-109 0.5 μg/kg
[12] = test system: RCC 54 kidney cancer cells; details: 7.5×10^−7 to 10^−6M
Description: In a typical assay cells were grown to 50-60% confluence in 24-well plates in respective media containing 5% FBS, and serum starved for 20 hours, followed by treatment with various agents (in 0.1% ethanolic solution) or ethanol (vehicle) in serum-containing medium for 16 hours. After the treatment media was removed from the wells and replaced with media containing ^3H-thymidine (Sigma, 0.1 μCi) per well, and the cells were incubated for 3 hours at 37° C. After this period media was removed by aspiration and the cells were washed thoroughly (3×0.5 ml) with PBS. Ice-cold 5% perchloric acid solution (0.5 ml) was added to each well and the cells were incubated on ice for 20 minutes. After this incubation, perchloric acid was removed by aspiration, replaced with 0.5 ml of fresh perchloric acid solution and the cells were incubated at 70° C. for 20 minutes. Solution from each well was mixed with scintillation fluid and counted in a liquid scintillation counter. There were eight (8) wells per sample; statistics was carried out by Student's t test.

[13] = test system: DU 145 human androgen-insensitive prostate cancer cells; assay: AMPI-107 in DU 145 xenograft, i.p. administration (Example 17); assay type: in vivo
Excerpt: as §6

Compound: 25-hydroxyvitamin D3-3-epoxide [AMPI-106]
- anti-tumor effect (DU 145 cells): strong anti-tumor activity

Compound: C=C1CC[C@H](O)C/C1=C/C=C1\CCC[C@]2(C)[C@@H]([C@H](C)CCCC(C)(C)O)CC[C@@H]12 [25-OH-D3, 25-hydroxyvitamin D3, reference compound]
- growth reduction of PC-3 cells [1]: marginal antiproliferative effect

Compound: C=C1CCC(OC(=O)CBr)CC1=CC=C1CCCC2(C)C1CCC2C(C)CCCC(C)(C)O (stereo not drawn) [AMPI-105, 25-hydroxyvitamin D3-3-bromoacetate]
- number of MCF-7 cells (MCF-7 cells): affected to a much lesser extent
- number of LNCaP cells (LNCaP cells): sharply reduced number of cells
- growth inhibition of PZ-HPV-7 cells ([2]; 10^−6 M, relative to EtOH): approximately 50%
- number of MC3T3 cells (MC3T3 mouse bone cells): affected to a much lesser extent
- average tumor volume at the end of treatment (DU 145 cells; 0.25 μg/kg): 650 mm^3
- average tumor volume at the end of treatment (DU 145 cells; 0.5 μg/kg): 500 mm^3
- gross weight of the animals versus untreated (DU 145 cells; during and after the treatment): no significant difference
- anti-tumor effect (DU 145 cells): strong anti-tumor activity
- anti-tumor effect (DU 145 cells; listed as 25-OH-D3-3-BE): dose-dependent anti-tumor effect
- number of LAPC-4 cells (LAPC-4 cells): sharply reduced number of cells
- growth inhibition in keratinocytes relative to 1,25(OH)2D3 [3]: stronger than an equivalent amount of 1,25 (OH)2D3
- cytotoxicity to LNCaP cells ([4]; 10^−6 M, phase contrast microscope): cytotoxic
- growth inhibition of LNCaP cells ([4]; 10^−6 M, relative to EtOH): ~98%
- growth inhibition in MCF-7 cells relative to 1,25(OH)2D3 [5]: weaker than 1,25(OH)2D3
- cytotoxicity to PC-3 cells ([1]; phase contrast microscope): cytotoxic
- growth reduction of PC-3 cells [1]: 90%

Compound: C=C1/C(=C\C=C2/CCC[C@]3(C)[C@@H]([C@H](C)/C=C/C=C/C(O)(CC)CC)CC[C@@H]23)C[C@@H](O)C[C@@H]1O [EB-1089, reference compound]
- anti-proliferative effect in DU-145 cells (DU-145 cells): failed to produce any discernible anti-proliferative effect

Compound: C=C1/C(=C\C=C2/CCC[C@]3(C)[C@@H]([C@H](C)/C=C/[C@@H](O)C4(C(=O)OCCCC)CC4)CC[C@@H]23)C[C@@H](O)C[C@@H]1O [ZK 159222]
- message for 24-OHase (24-OHase): obliterated

Compound: C=C1/C(=C\C=C2/CCC[C@]3(C)[C@@H]([C@H](C)CCCC(C)(C)O)CC[C@@H]23)C[C@@H](O)C[C@@H]1O [calcitriol, 1,25-dihydroxyvitamin D3, reference compound]
- antiproliferative effect in DU-145 cells (DU-145 cells; 2.5×10^−7M to 10^−6M, 20 hours): no effect
- anti-proliferative effect in DU-145 cells (DU-145 cells): failed to produce any discernible anti-proliferative effect
- number of MCF-7 cells (MCF-7 cells): little effect
- impact on normal kidney cells versus control (normal kidney cells): neither Calcitriol nor AMPI-109 had any statistically different impact
- number of LNCaP cells (LNCaP cells): little effect
- inhibition at 1 µM ([2]; Prostate cell, read-out: growth inhibition of PZ-HPV-7 cells): ~65%
- number of MC3T3 cells (MC3T3 mouse bone cells): little effect
- growth inhibition of PC-3 cells [6]: strongly inhibited the growth
- number of LAPC-4 cells (LAPC-4 cells): little effect
- toxicity (body weight) ([7]; mouse, in vivo, po, 1 mg/kg): clearly toxic as evidenced by considerable loss of body weight
- growth inhibition of LNCaP cells [8]: strongly inhibited the growth
- inhibition at 1 µM ([4]; Homo sapiens, LNCaP, read-out: growth inhibition of LNCaP cells): ~60%
- growth inhibitory activity in DU-145 cells [9]: approximately similar growth inhibitory activity
- cell metabolism (MTT reduction) [10]: slightly, but significantly reduce cell metabolism
- body weight [11]: significant loss in body weight
- reduction of proliferation of RCC 54 kidney cancer cells [12]: did not have any statistically different impact
- toxicity (body weight) ([13]; mouse, in vivo, ip, 1 mg/kg): clearly toxic as evidenced by considerable loss of body weight
- message for 24-OHase (24-OHase): up regulated
- growth reduction of PC-3 cells [1]: 70%

Compound: Vitamin D3-3-epoxide [AMPI-107]
- efficacy on tumor size ([7]; 1 mg/kg p.o. every third day, day 11 to 30): strongly reduced tumor size
- toxicity (body weight) ([7]; p.o., hormone 0.5 and 1.0 μg/kg, MPI 107 1 mg/kg): completely non-toxic
- growth inhibition of LNCaP cells [8]: strongly inhibited the growth and significantly stronger effect and more
- growth inhibitory activity in DU-145 cells [9]: approximately similar growth inhibitory activity; also recorded: equally effective
- efficacy on tumor size ([13]; 1 mg/kg i.p. every third day, day 11 to 30): strongly reduced tumor size
- toxicity (body weight) ([13]; i.p., hormone 0.5 and 1.0 μg/kg, MPI 107 1 mg/kg): completely non-toxic
